Broadly, the inhibition is the change of the read-out against control, counted positive when it falls. A word on the Ki: it is the equilibrium dissociation constant of an inhibitor or competing ligand from its target.

Consider 13 compounds from patent publication US7968548B2, “Melanocortin receptor-specific piperazine compounds with diamine groups” (Palatin Technologies, Inc., priority 2005, dated 2011).

For one experiment, the target named is T1, MC1-R (Mus musculus, UniProt Q01727).
T1 construct: from B-16 mouse melanoma cells (containing endogenous MC1-R); endogenous in cells; host or cells: B-16 mouse melanoma cells (membrane homogenates)
T1 sequence (Q01727 whole entry): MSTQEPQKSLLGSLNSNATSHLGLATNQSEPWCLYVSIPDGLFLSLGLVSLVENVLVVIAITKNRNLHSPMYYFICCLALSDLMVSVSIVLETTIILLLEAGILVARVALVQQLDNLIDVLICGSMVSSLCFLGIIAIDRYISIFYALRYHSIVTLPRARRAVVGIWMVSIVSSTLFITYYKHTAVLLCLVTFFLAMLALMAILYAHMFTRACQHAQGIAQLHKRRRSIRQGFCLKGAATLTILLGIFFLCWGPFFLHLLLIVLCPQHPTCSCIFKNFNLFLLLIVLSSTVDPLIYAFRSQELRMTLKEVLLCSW
The experiment is described as follows: Competitive inhibition binding assay using [I125]-NDP-α-MSH, B-16 mouse melanoma cell membranes. As to conditions: B-16 mouse melanoma cells; for inhibition at 1 µM: 1 μM compound. Here is the method:
(§1) A competitive inhibition binding assay was performed using membrane homogenates prepared from HEK-293 cells that express recombinant hMC4-R, hMC3-R, or hMC5-R, and from B-16 mouse melanoma cells (containing endogenous MC1-R). In some instances, HEK-293 cells that express recombinant hMC1-R were employed. In the examples that follow, all MC3-R, MC4-R and MC5-R values are for human recombinant receptors. MC1-R values are for B-16 mouse melanoma cells, unless the heading is “hMC1-R”, in which case the value is for human recombinant MC1-R. Assays were performed in 96 well GF/B Millipore multiscreen filtration plates (MAFB NOB10) pre-coated with 0.5% bovine serum albumin (Fraction V). […] After incubation for 60 minutes at 37° C., the assay mixture was filtered and the membranes washed three times with ice-cold buffer. Filters were dried and counted in a gamma counter for bound radioactivity. […] Maximal specific binding (100%) was defined as the difference in radioactivity (cpm) bound to cell membranes in the absence and presence of 1 μM NDP-α-MSH. […] Each assay was conducted in triplicate and the actual mean values are described, with results less than 0% reported as 0%. Ki values for test compounds were determined using Graph-Pad Prism® curve-fitting software.

For the next experiment, the target named is T2, MC3-R (Homo sapiens, UniProt P41968).
T2 construct: expressed in transfected cells; host or cells: HEK-293
T2 sequence (P41968 whole entry): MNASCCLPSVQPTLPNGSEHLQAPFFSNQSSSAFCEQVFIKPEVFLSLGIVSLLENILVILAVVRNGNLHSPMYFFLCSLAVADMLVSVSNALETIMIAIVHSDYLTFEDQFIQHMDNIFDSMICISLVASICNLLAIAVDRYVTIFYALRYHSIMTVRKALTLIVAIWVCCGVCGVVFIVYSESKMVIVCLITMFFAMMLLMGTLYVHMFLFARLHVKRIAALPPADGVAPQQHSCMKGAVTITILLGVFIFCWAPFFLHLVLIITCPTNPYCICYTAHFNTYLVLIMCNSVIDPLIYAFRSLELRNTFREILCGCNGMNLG
The experiment is described as follows: Competitive inhibition binding assay using [I125]-NDP-α-MSH, HEK-293 membranes, recombinant hMC3-R. Conditions: for inhibition at 1 µM: 1 μM compound. Here is the method: as §1

The next experiment has as its target T3, MC5-R (Homo sapiens, UniProt P33032).
T3 construct: expressed in transfected cells; host or cells: HEK-293
The experiment is described as follows: Competitive inhibition binding assay using [I125]-NDP-α-MSH, HEK-293 membranes, recombinant hMC5-R. As to conditions: for inhibition at 1 µM: 1 μM compound. How it is done:
as §1

Another experiment concerns the target MC4-R (Homo sapiens, UniProt P32245). Kind of experiment: Competitive inhibition binding assay using [I125]-NDP-α-MSH, HEK-293 membranes, recombinant hMC4-R. Details: expressed in transfected cells; host or cells: HEK-293. Conditions: for inhibition at 1 µM: 1 μM compound. Here is the method:
as §1

The target of a further experiment is T4, hMC1-R (Homo sapiens, UniProt Q01726).
T4 construct: expressed in transfected cells; host or cells: HEK-293
T4 sequence (Q01726 whole entry): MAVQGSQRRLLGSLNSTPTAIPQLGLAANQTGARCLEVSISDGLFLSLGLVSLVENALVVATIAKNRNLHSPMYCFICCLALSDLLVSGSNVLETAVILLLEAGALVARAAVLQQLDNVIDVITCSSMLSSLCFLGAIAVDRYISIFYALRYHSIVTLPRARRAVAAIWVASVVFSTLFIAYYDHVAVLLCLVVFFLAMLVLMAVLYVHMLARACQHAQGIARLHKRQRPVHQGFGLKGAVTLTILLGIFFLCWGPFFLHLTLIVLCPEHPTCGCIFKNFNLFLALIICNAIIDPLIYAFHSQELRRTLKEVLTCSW
Kind of experiment: Competitive inhibition binding assay using [I125]-NDP-α-MSH, HEK-293 membranes, recombinant hMC1-R. As to conditions: human recombinant MC1-R; for inhibition at 1 µM: 1 μM compound. How it is done: as §1

The nature of experiment [1]: Mouse model IN feeding studies (body weight). It is filed as in vivo. As to conditions: 20 hours. How it is done:
Food intake and body weight after IN and IP dosing. Changes in food intake and body weight were evaluated for selected compounds. Male C57BL/6 mice were obtained from Jackson labs (Bar Harbor, Me.). Animals were individually housed in conventional plexiglass hanging cages and maintained on a controlled 12 hour on/off light cycle. Water and pelleted (Harlan Teklad 2018 18% Protein Rodent Diet) food was provided ad libitum. The mice were dosed IP (by intraperitoneal injection) after a 24 hour fast or IN (by intranasal administration) with vehicle or selected compounds (0.1-3 mg/kg, and in some cases up to 10 mg/kg). All animals were dosed once a day (or up to four consecutive days) at the start of the “lights off” period. The changes in food intake for the 4 hour and 20 hour period after dosing relative to control animals administered vehicle were determined. Body weights were determine 4 hours prior to dosing and 20 hours after dosing, and the change in body weight relative to control animals administered vehicle were determined.

T3 sequence (P33032 whole entry): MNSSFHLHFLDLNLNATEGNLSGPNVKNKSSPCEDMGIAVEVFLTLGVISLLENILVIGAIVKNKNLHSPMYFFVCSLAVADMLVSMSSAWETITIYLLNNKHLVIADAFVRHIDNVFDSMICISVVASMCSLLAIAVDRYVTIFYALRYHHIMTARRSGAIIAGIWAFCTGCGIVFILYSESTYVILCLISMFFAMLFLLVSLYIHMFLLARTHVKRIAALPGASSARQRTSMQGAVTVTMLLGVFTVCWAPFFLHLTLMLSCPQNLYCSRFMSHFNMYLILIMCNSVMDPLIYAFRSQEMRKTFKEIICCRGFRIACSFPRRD
Sequence of MC4-R (P32245 whole entry): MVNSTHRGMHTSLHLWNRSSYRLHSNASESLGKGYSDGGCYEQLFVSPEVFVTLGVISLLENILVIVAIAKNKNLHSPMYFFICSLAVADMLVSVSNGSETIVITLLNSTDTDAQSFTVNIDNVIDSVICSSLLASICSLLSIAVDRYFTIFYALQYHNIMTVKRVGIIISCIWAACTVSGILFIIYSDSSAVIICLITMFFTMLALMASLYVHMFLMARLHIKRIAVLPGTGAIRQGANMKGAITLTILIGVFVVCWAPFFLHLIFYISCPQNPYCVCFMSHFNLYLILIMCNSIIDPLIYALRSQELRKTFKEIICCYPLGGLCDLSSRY

For the compound `Cc1ccc(C[C@@H](N)CN2C[C@@H](C)N(C(=O)Cc3ccc4ccccc4c3)C[C@@H]2CCCNCCN)c(C)c1` [Example 3], the inhibition at 1 µM was found to be 41% on MC1-R, 82% on MC3-R, 94% at MC5-R and 92% at MC4-R. In addition, the Ki worked out at 660 nM on MC1-R, 320 nM at MC3-R, 20 nM at MC5-R and 160 nM at MC4-R.
`Cc1ccc(C[C@@H](N)CN2C[C@@H](C)N(C(=O)Cc3ccc4ccccc4c3)C[C@@H]2CCCN2CCNCC2)c(C)c1` [Example 4]: the inhibition at 1 µM on MC1-R amounted to 12%; on MC3-R it was 43%; on MC5-R, 97%; at MC4-R, 55%.
`Cc1ccc(C[C@@H](N)CN2C[C@@H](C)N(C(=O)Cc3ccc4ccccc4c3)C[C@@H]2CCCNC2CCNC2)c(C)c1` (stereo partly drawn) [Example 5, 1-{(2R,5S)-4-[(R)-2-Amino-3-(2,4-dimethyl-phenyl)-propyl]-2-methyl-5-[3-(pyrrolidin-3-ylamino)-propyl]-piperazin-1-yl}-2-naphthalen-2-yl-ethanone]: the inhibition at 1 µM came out at 41% on MC1-R, 75% on MC3-R, 96% at MC5-R and 81% at MC4-R. Moreover, the inhibitory constant (Ki) at MC1-R was determined as 685 nM; on MC3-R, 395 nM; on MC5-R it was 31 nM; at MC4-R, 387 nM.
With `Cc1ccc(C[C@@H](N)CN2C[C@@H](C)N(C(=O)Cc3ccc4ccccc4c3)C[C@@H]2CCCNC2CCCCC2N)c(C)c1` (stereo partly drawn) [Example 6, 1-{(2R,5S)-5-[3-(2-Amino-cyclohexylamino)-propyl]-4-[(R)-2-amino-3-(2,4-dimethyl-phenyl)-propyl]-2-methyl-piperazin-1-yl}-2-naphthalen-2-yl-ethanone], the inhibition at 1 µM at MC1-R is 33%; at MC3-R, 47%; on MC5-R, 98%; at MC4-R, 88%. Moreover, the Ki on MC1-R was 580 nM; at MC3-R, 535 nM; at MC5-R, 38 nM; on MC4-R, 255 nM.
Take `Cc1ccc(C[C@H](CN2C[C@@H](C)N(C(=O)Cc3ccc4ccccc4c3)C[C@@H]2CCCN(C)C2CCN(C)C2)N(C)C)c(C)c1` (stereo partly drawn) [Example 7, 1-((2R,5S)-4-[(R)-2-Dimethylamino-3-(2,4-dimethyl-phenyl)-propyl]-2-methyl-5-{3-[methyl-(1-methyl-pyrrolidin-3-yl)-amino]-propyl}-piperazin-1-yl)-2-aphthalen-2-yl-ethanone]: the inhibition at 1 µM on MC1-R was found to be 4%; on MC3-R, 0%; on MC5-R, 44%; at MC4-R it was 56%.
`Cc1ccc(C[C@H](CN2C[C@@H](C)N(C(=O)Cc3ccc4ccccc4c3)C[C@@H]2CCCN(C)C2CCCCC2N(C)C)N(C)C)c(C)c1` (stereo partly shown) [Example 8]: the inhibition at 1 µM at MC1-R is 26%; at MC3-R, 28%; at MC5-R, 48%; at MC4-R, 52%.
For `Cc1ccc(C[C@H](CN2C[C@@H](C)N(C(=O)Cc3ccc4ccccc4c3)C[C@@H]2CCCN(C)CCN(C)C)N(C)C)c(C)c1` [Example 9, 1-((2R,5S)-4-[(R)-2-Dimethylamino-3-(2,4-dimethyl-phenyl)-propyl]-5-{3-[(2-dimethylamino-ethyl)-methyl-amino]-propyl}-2-methyl-piperazin-1-yl)-2-naphthalen-2-yl-ethaone], the inhibition at 1 µM on MC1-R stood at 0%; at MC3-R, 9%; on MC5-R it was 51%; at MC4-R, 49%.
As to `CC(C)C[C@@H]1CN(C(=O)[C@H](N)Cc2ccc(Cl)cc2Cl)[C@@H](CCCNCCN)CN1C(=O)[C@H](N)Cc1ccc(Cl)cc1Cl` [Example 12, (R)-2-Amino-1-{(2R,5S)-4-[(R)-2-amino-3-(2,4-dichloro-phenyl)-propionyl]-5-[3-(2-amino-ethylamino)-propyl]-2-isobutyl-piperazin-1-yl}-3-(2,4-dichloro-phenyl)-propan-1-one], the inhibition at 1 µM at hMC1-R amounted to 23%; at MC3-R, 41%; on MC5-R, 55%; on MC4-R, 89%. Further, the values for the Ki on hMC1-R, at MC3-R and on MC4-R were 309 nM, 574 nM and 44 nM, respectively. Besides, the entries for the “average decrease in body weight compared to control animals” value (shortened to “average decrease in body weight”) in experiment [1] (0.1 mg/kg) and in experiment [1] (0.3 mg/kg) were 0.7% and 3.1%, respectively.
On to `CC(C)C[C@@H]1CN(C(=O)[C@H](N)Cc2ccc3ccccc3c2)[C@@H](CCCNCCN)CN1C(=O)[C@H](N)Cc1ccc2ccccc2c1` [Example 13, (R)-2-Amino-1-[(2R,5S)-5-[3-(2-amino-ethylamino)-propyl]-4-((R)-2-amino-3-naphthalen-2-yl-propionyl)-2-isobutyl-piperazin-1-yl]-3-naphthalen-2-yl-propan-1-one], for which the inhibition at 1 µM turned out to be 40% at hMC1-R, 79% on MC3-R, 57% on MC5-R and 96% at MC4-R. In addition, the Ki on hMC1-R was 135 nM; at MC3-R, 127 nM; at MC4-R it was 13 nM. Moreover, the “average decrease in body weight” value in experiment [1] (0.1 mg/kg) amounted to 1%; in experiment [1] (0.3 mg/kg) it was 3%; in experiment [1] (1 mg/kg), 3.2%.
`CC(C)C[C@@H]1CN(C(=O)[C@H](N)Cc2ccc3ccccc3c2)[C@@H](CCCCNCCN)CN1C(=O)[C@H](N)Cc1ccc2ccccc2c1` [Example 20, (R)-2-Amino-1-[(2R,5S)-5[4-(2-amino-ethylamino)-butyl]-4-((R)-2-amino-3-naphthalen-2-yl-propionyl)-2-isobutyl-piperazin-1-yl]-3-naphthalen-2-yl-propan-1-one]: the inhibition at 1 µM on hMC1-R was determined as 68%; on MC3-R it was 62%; at MC5-R, 49%; at MC4-R it was 99%. Besides, the Ki was 215 nM on hMC1-R, 321 nM on MC3-R, 253 nM on MC5-R and 9 nM at MC4-R. The “average decrease in body weight” value in experiment [1] (0.1 mg/kg) stood at 1.2%; in experiment [1] (0.3 mg/kg) it was 3%.
For the compound `CC(C)C[C@@H]1CN(C(=O)[C@H](N)Cc2ccc(Cl)c(Cl)c2)[C@@H](CCCCNCCN)CN1C(=O)[C@H](N)Cc1ccc(Cl)c(Cl)c1` [Example 22, (R)-2-Amino-1-{(2R,5S)-4-[(R)-2-amino-3-(3,4-dichloro-phenyl)-propionyl]-5-[4-(2-amino-ethylamino)-butyl]-2-isobutyl-piperazin-1-yl}-3-(3,4-dichloro-phenyl)-propan-1-one], the Ki on hMC1-R is 116 nM; at MC3-R it was 69 nM; at MC5-R, 179 nM; at MC4-R, 4 nM. Further, the “average decrease in body weight” value in experiment [1] (0.1 mg/kg) stood at 0.6%; in experiment [1] (0.3 mg/kg) it was 4.9%.
For the compound `NCCNCCCC[C@H]1CN(C(=O)[C@H](N)Cc2ccc3ccccc3c2)[C@H](CC2CCCCC2)CN1C(=O)[C@H](N)Cc1ccc2ccccc2c1` [Example 23, (R)-2-Amino-1-[(2R,5S)-5-[4-(2-amino-ethylamino)-butyl]-4-((R)-2-amino-3-naphthalen-2-yl-propionyl)-2-cyclohexylmethyl-piperazin-1-yl]-3-naphthalen-2-yl-propan-1-one], the Ki stood at 153 nM at hMC1-R, 435 nM at MC3-R, 103 nM at MC5-R and 20 nM at MC4-R. For the same compound, the “average decrease in body weight” value in experiment [1] (0.1 mg/kg) was determined as 1.6%; in experiment [1] (0.3 mg/kg), 2.6%.
Regarding `CC(C)C[C@@H]1CN(C[C@@H](Cc2ccc(Cl)cc2Cl)N(C)C)[C@@H](CCCN(C)CCN)CN1C(=O)Cc1ccc2ccccc2c1` [Example 32, 1-{(2R,5S)-5-{3-[(2-Amino-ethyl)-methyl-amino]-propyl}-4-[(R)-3-(2,4-dichloro-phenyl)-2-dimethylamino-propyl]-2-isobutyl-piperazin-1-yl}-2-naphthalen-2-yl-ethanone], the inhibition at 1 µM at hMC1-R stood at 25%; at MC3-R, 43%; at MC5-R it was 65%; at MC4-R, 91%.
